Results on five compounds are retold here after ChEMBL document CHEMBL1201862, “PubChem BioAssay data set” (2004).

Some test systems named below: RPMI-8226; UO-31; NCI-H460; SF-268; COLO 205; ACHN; HOP-92; EKVX; KM12; HCC 2998; SF-539; SW-620; HCT-15; LOX IMVI; M19-MEL; SN12C; OVCAR-5.
What all share (assay): NCI tumour cell line growth inhibition, 48 h

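Where inhibition never reached the appropriate level, the endpoint shown equals the highest concentration tested. Otherwise, values were interpolated linearly from a five-concentration, 48-hour dose response in 96-well plates. GI50 is the concentration that inhibits growth by half.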 Calls of active or inactive are those of the source. Rule as the data show it: active = GI50 up to about 1.1 µM and inactive = higher. Where only a bound is given, the exact number is not on record here.

Turning to `CCCCCCCCCCCCOC(=N)N1CCOCC1`, the GI50 was 1.87 µM (inactive) in the experiment with RPMI-8226; 13.5 µM (inactive) with UO-31; 15 µM (inactive) in the experiment on NCI-H460; 15 µM (inactive) in the experiment on SF-268; 1.75 µM (inactive) in the experiment on COLO 205; 14.2 µM (inactive) in the experiment on ACHN. The GI50 in the experiment with HOP-92 is 1.32 µM (inactive); with EKVX, 12.9 µM (inactive); in the experiment with KM12 it was 5.53 µM (inactive); in the experiment with HCC 2998 it was 10.5 µM (inactive); with SF-539, 0.982 µM (active); in the experiment with SW-620, 4.11 µM (inactive). Besides, the GI50 with HCT-15 is 4.08 µM; in the experiment on LOX IMVI it was 14.5 µM (inactive); in the experiment with M19-MEL, 5.22 µM (inactive); in the experiment on SN12C, 4.39 µM (inactive); in the experiment with OVCAR-5, 14.9 µM (inactive).
In the case of `NNC(=O)C(=O)N/N=C(\CCC(=O)Nc1ccc(Cl)cc1)Cc1nc2ccccc2s1`, the GI50 is 25.6 µM (inactive) in the experiment on RPMI-8226; 11.9 µM (inactive) in the experiment with UO-31; 28 µM (inactive) in the experiment with NCI-H460; 25.3 µM (inactive) in the experiment on SF-268; 32.7 µM (inactive) in the experiment on COLO 205; 26.1 µM (inactive) with ACHN. Moreover, the GI50 with HOP-92 is 45.5 µM (inactive); with EKVX, 27.4 µM (inactive); in the experiment with KM12 it was 51.1 µM (inactive); in the experiment with HCC 2998, 44.7 µM (inactive); in the experiment on SF-539 it was 32.7 µM (inactive); in the experiment with SW-620 it was 35.3 µM (inactive). For the same compound, the GI50 in the experiment with HCT-15 is 19.1 µM; in the experiment with LOX IMVI, 17.7 µM (inactive); with M19-MEL, 17.4 µM (inactive); in the experiment with SN12C, 34.6 µM (inactive); with OVCAR-5, 33.1 µM (inactive).
Regarding `c1ccc(C2=NN(c3ccccc3)C3(S2)SC(c2ccccc2)(c2ccccc2)c2ccccc23)cc1` (stereo not given), the GI50 in the experiment on RPMI-8226, in the experiment on UO-31, in the experiment on NCI-H460, with SF-268, in the experiment with COLO 205 and in the experiment with ACHN was > 100 µM (inactive) each time. For the same compound, the GI50 in the experiment with HOP-92, in the experiment on EKVX, in the experiment on KM12, in the experiment with HCC 2998, in the experiment on SF-539 and with SW-620 was > 100 µM (inactive) throughout. The GI50 in the experiment with HCT-15 was more than 100 µM; in the experiment on LOX IMVI it was > 100 µM (inactive); with M19-MEL, > 100 µM (inactive); in the experiment on SN12C it was > 100 µM (inactive); with OVCAR-5, > 100 µM (inactive).
Turning to `CC(=O)NNc1nc(C)c(C(=O)/C=C/c2ccccc2Cl)s1`, the GI50 in the experiment with RPMI-8226, with UO-31, in the experiment on NCI-H460, in the experiment with SF-268, in the experiment on COLO 205 and in the experiment on ACHN was > 100 µM (inactive) throughout. Moreover, the GI50 in the experiment with HOP-92, in the experiment with EKVX, in the experiment with KM12, in the experiment on HCC 2998, with SF-539 and in the experiment on SW-620 was > 100 µM (inactive) each time. In addition, the GI50 was more than 100 µM in the experiment with HCT-15; > 100 µM (inactive) in the experiment on LOX IMVI; > 100 µM (inactive) in the experiment with M19-MEL; > 100 µM (inactive) in the experiment with SN12C; > 100 µM (inactive) with OVCAR-5.
As to `O=c1c2ccccc2c(=O)n2n1-c1cccc(c1)CSSCc1cccc-2c1`, the GI50 with RPMI-8226, in the experiment on UO-31, in the experiment on NCI-H460, in the experiment with SF-268, in the experiment with COLO 205 and in the experiment with ACHN was > 10 µM (inactive) throughout. Besides, the GI50 with HOP-92 is 5.9 µM (inactive); in the experiment with EKVX it was > 10 µM (inactive); with KM12, > 10 µM (inactive); in the experiment on HCC 2998, > 10 µM (inactive); in the experiment with SF-539, > 10 µM (inactive); in the experiment with SW-620, > 10 µM (inactive). The GI50 was more than 10 µM in the experiment with HCT-15; > 100 µM (inactive) in the experiment with LOX IMVI; > 10 µM (inactive) in the experiment with M19-MEL; > 10 µM (inactive) with SN12C; > 10 µM (inactive) with OVCAR-5.
